Reference: US20240051985A1, “METTL3 MODULATORS” (ACCENT THERAPEUTICS, INC., priority 2020, published 2024)

Tests used:
[1] = molecular target: METTL3/METTL14 (Homo sapiens, UniProt Q86U44); experiment: METTL3-14 standard enzyme assay (3H-SAM flashplate); conditions: METTL3 biochemical assay
Procedure, shortened: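 METTL3/METTL14 (2.5 nM) preincubated 5 min, then reacted with 3′-biotinylated RNA UCUGGACUAAA (100 nM) and 3H-SAM (100 nM) for 30 min at ambient temperature in 20 mM HEPES pH 7.5, 50 mM KCl, 250 μM MgCl2, 1 mM DTT. Quenched with 15 μM cold SAM; product captured on streptavidin flashplates, scintillation counted.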

[2] = molecular target: PRMT5-MEP50 (Homo sapiens, UniProt O14744); experiment: PRMT5 assay (3H-SAM flashplate); conditions: PRMT5 biochemical assay
Procedure: Assays were performed in a 25 μl-volume in 384-well V-bottom polypropylene microplates (Greiner Bio-One, cat. No. 781280) at ambient temperature. Optimized 1× assay buffer was 20 mM Tris-HCl pH 8.0, 1 mM DTT, […]. For compound screening PRMT5-MEP50 (final concentration, f.c.=2.5 nM) was added using a Multidrop Combi (ThermoFisher Scientific, Waltham, MA) and preincubated for 5 min. Reactions were started by adding 3′ biotinylated histone H4 peptide acetylated on serine 1 (Ac-[…]-Biotin) (f.c.=100 nM) and 3H-SAM (f.c.=250 nM) substrates. Reactions proceeded for 60 minutes and were quenched with excess non-radioactive SAM (f.c.=15 μM). The reactions were then transferred to streptavidin-coated flashplates and incubated for 2 hours at 25° C. Following two washing cycles with 0.1% Tween-20, the plates were sealed and read on a TopCount (PerkinElmer, Waltham, MA) plate-based scintillation counter. For determination of kinetic parameters, reaction times were optimized so that measurements were taken during the initial velocity phase of the reaction.

[3] = molecular target: T1, FLT3 (Homo sapiens, UniProt P36888); experiment: FLT3 Caliper assay; format: biochemical; conditions: Table 4; read-out: FLT3 Calipher assay IC50
T1 sequence (P36888 27-993): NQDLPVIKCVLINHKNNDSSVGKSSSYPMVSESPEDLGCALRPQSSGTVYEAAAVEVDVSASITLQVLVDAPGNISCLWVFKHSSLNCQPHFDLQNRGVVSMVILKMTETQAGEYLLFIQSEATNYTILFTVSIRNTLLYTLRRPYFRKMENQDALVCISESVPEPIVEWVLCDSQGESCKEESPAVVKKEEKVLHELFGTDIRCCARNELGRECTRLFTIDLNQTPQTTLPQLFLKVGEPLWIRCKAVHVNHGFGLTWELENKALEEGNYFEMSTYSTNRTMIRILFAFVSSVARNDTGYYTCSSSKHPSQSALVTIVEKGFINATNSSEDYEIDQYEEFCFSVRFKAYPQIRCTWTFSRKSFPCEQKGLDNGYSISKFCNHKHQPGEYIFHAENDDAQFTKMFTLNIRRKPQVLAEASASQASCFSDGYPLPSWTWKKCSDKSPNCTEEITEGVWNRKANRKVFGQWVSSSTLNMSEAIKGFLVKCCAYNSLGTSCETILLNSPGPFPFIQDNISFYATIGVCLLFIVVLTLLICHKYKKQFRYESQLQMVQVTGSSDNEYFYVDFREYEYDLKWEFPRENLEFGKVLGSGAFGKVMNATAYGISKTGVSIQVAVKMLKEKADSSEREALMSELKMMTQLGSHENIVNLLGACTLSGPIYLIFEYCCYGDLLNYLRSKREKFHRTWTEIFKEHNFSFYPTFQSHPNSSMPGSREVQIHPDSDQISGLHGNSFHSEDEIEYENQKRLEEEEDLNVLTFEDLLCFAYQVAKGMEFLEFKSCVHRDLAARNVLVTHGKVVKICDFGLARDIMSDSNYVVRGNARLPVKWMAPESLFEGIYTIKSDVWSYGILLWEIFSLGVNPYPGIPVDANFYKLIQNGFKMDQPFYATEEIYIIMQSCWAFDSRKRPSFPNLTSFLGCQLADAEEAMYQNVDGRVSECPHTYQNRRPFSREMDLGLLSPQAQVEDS
Procedure: (§1) FLT3/FLT3-ITD Caliper Assays
(§2) Assays were performed in a 20 μl-volume in 384-well polypropylene microplates (Perkin Elmer Proxiplate, cat. No. 6059480) at ambient temperature. Optimized 1× assay buffer was 50 mM Hepes pH 7.5, 2 mM DTT, 0.01% Tween, 0.01% BSA, 10 mM MgCl2. For compound screening FLT3 (final concentration, f.c.=0.9 nM) or FLT3-ITD (f.c.=7 nM) was added using a Multidrop Combi (ThermoFisher Scientific, Waltham, MA) and preincubated for 10 min. Reactions were started by adding fluorescein-peptide (sequence 5-FAM-EAIYAAPFAKKK-CONH2) (f.c.=300 μM) and ATP (FLT3 f.c.=97 μM FLT3-ITD f.c.=146 μM) substrates. Reactions proceeded for 60 minutes. The reactions were stopped with LabChip ProfilerPro Separation Buffer containing EDTA (f.c.=20 mM). The plates were read on a Caliper microfluidics reader (PerkinElmer, Waltham, MA).

[4] = molecular target: T2, FLT3-ITD (Homo sapiens, UniProt P36888); experiment: FLT3-ITD Caliper assay; format: biochemical; conditions: Table 4; read-out: FLT3-ITD Calipher assay IC50
T2 sequence (P36888 1-993): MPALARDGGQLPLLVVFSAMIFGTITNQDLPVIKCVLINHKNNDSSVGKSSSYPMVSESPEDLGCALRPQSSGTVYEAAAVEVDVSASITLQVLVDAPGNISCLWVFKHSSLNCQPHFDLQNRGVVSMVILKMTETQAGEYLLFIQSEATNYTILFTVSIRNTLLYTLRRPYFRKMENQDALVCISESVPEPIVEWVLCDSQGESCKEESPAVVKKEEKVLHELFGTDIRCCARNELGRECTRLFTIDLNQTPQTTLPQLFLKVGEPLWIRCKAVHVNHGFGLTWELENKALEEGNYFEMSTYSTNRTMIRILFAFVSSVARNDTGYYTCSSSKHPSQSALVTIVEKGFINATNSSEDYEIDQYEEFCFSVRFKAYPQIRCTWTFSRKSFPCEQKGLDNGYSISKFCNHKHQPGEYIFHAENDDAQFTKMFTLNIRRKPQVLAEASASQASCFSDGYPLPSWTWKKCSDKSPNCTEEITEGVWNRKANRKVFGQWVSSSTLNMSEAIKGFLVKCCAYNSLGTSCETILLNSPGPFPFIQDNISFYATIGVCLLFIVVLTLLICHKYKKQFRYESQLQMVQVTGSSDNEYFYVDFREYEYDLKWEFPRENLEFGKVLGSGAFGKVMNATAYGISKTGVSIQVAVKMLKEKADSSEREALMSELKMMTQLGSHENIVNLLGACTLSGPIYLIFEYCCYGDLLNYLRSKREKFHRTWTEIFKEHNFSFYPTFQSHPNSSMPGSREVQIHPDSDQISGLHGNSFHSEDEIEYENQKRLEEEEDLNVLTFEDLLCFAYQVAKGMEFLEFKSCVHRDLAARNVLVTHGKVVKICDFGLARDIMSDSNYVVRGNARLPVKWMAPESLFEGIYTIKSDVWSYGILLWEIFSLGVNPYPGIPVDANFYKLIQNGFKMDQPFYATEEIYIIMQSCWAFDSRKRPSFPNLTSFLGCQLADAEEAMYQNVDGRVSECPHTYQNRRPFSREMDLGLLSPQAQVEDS
Procedure: as §1, §2

Sequence of PRMT5-MEP50 (O14744 whole entry): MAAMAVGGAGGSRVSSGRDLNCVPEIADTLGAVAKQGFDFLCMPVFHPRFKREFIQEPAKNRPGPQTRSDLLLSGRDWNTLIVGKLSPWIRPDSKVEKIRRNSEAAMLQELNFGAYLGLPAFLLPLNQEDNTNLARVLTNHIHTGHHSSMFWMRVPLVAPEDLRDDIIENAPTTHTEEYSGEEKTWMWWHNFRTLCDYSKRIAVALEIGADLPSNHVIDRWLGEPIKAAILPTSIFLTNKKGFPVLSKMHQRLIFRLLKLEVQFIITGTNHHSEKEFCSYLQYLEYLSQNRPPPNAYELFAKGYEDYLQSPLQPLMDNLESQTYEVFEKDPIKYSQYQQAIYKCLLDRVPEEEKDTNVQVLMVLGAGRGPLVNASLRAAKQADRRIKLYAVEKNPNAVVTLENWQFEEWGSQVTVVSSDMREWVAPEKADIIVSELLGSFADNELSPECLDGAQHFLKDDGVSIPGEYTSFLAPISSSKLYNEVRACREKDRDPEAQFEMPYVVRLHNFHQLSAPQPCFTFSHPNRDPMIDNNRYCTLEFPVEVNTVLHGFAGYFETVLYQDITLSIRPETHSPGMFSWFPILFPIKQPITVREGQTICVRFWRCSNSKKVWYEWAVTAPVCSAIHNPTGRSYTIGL
Sequence of PRMT5-MEP50 (Q9BQA1 whole entry partner): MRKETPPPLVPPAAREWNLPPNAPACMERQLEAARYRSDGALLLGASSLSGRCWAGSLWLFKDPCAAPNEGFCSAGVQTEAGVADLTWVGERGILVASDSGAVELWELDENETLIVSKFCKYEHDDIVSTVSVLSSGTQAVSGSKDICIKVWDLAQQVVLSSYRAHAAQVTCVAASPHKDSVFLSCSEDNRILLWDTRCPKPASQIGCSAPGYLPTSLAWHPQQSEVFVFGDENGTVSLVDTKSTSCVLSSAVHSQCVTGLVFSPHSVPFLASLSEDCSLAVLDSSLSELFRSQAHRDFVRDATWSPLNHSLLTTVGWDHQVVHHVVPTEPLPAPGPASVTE
Sequence of METTL3/METTL14 (Q86U44 whole entry, species assumed): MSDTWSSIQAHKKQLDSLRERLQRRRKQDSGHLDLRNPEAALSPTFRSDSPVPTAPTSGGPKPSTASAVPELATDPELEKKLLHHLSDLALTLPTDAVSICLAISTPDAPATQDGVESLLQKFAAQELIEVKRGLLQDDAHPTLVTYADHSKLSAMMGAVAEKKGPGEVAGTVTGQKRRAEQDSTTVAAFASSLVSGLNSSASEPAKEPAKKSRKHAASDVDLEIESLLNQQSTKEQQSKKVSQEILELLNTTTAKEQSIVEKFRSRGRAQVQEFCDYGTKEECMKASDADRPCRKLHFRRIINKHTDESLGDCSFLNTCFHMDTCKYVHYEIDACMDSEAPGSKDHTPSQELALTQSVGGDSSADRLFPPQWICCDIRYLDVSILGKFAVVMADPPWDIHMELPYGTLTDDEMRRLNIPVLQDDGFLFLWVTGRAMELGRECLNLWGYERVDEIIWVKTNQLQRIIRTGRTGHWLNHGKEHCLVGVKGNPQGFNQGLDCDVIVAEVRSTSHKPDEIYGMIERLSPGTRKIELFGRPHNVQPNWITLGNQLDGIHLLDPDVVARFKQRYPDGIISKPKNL
Sequence of METTL3/METTL14 (Q9HCE5 whole entry partner, species assumed): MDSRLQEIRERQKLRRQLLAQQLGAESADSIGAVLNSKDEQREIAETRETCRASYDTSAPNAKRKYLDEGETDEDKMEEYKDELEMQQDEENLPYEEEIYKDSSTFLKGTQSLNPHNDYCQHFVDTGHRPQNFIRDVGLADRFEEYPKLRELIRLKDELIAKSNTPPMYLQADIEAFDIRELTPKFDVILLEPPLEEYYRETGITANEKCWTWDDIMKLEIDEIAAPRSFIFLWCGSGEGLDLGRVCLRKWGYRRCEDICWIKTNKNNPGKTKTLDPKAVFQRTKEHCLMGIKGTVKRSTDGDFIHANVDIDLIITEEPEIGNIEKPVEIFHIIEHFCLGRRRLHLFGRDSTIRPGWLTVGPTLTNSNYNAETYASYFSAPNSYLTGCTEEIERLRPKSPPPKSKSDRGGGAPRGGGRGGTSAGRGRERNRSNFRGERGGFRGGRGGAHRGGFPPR

Row | Structure (SMILES) | IC50 ([1]; Table 4) | IC50 ([2]; Table 4) | IC50 [3] | IC50 [4] | IC50 ([1]; Table 3) | IC50 ([2]; Table 3)
1 | COc1cccc(CNC(=O)[C@H]2O[C@@H](n3cc(-c4ccn(C)n4)c4c(N)ncnc43)[C@H](O)[C@@H]2O)c1 [Compound I-40] | 100 to 1000 nM | 100 to 1000 nM | ≥ 1000 nM | ≥ 1000 nM |  | 
2 | Cn1ccc(-c2cn([C@@H]3O[C@H](C(=O)NCCc4ccccc4)[C@@H](O)[C@H]3O)c3ncnc(N)c23)n1 [Compound I-192] | 100 to 1000 nM | 100 to 1000 nM | ≥ 1000 nM | ≥ 1000 nM |  | 
3 | Cn1ccc(-c2cn([C@@H]3O[C@H](C(=O)N(CC[C@H](N)C(=O)O)c4ccc5nc(N)[nH]c5c4)[C@@H](O)[C@H]3O)c3ncnc(N)c23)n1 [Compound I-39, (2S)-2-amino-4-[N-(2-amino-1H-1,3-benzodiazol-6-yl)-1-[(2S,3S,4R,5R)-5-[4-amino-5-(1-methyl-1H-pyrazol-3-yl)-7H-pyrrolo[2,3-d]pyrimidin-7-yl]-3,4-dihydroxyoxolan-2-yl]formamido]butanoic acid] | 100 to 1000 nM | ≥ 1000 nM |  |  |  | 
4 | Nc1ccnc(NC(=O)[C@H]2O[C@@H](n3cc(-n4cccn4)c4c(N)ncnc43)C[C@@H]2O)c1 [Compound I-18] |  |  |  |  | 10 to 100 nM | ≥ 1000 nM
5 | CN1CCC(N(CCCNc2ccccn2)C(=O)[C@H]2O[C@@H](n3cc(-c4ccn(C)n4)c4c(N)ncnc43)[C@H](O)[C@@H]2O)CC1 [Compound I-153] | ≥ 1000 nM | 10 to 100 nM |  |  |  | 
6 | CN1CCC(N(CCCc2cnoc2)C(=O)[C@H]2O[C@@H](n3cc(-c4ccn(C)n4)c4c(N)ncnc43)[C@H](O)[C@@H]2O)CC1 [Compound I-152] | 100 to 1000 nM | 100 to 1000 nM |  |  |  | 
7 | Cn1ccc(-c2cn([C@@H]3O[C@H](C(=O)NC4CCN(C(=O)OCc5ccccc5)CC4)[C@@H](O)[C@H]3O)c3ncnc(N)c23)n1 [Compound I-225] | 100 to 1000 nM | 100 to 1000 nM |  |  |  | 
8 | CN(C)CCCN(C(=O)[C@H]1O[C@@H](n2cc(-c3ccn(C)n3)c3c(N)ncnc32)[C@H](O)[C@@H]1O)C1CCN(C)CC1 [Compound I-51, (2S,3S,4R,5R)-5-[4-amino-5-(1-methyl-1H-pyrazol-3-yl)-7H-pyrrolo[2,3-d]pyrimidin-7-yl]-N-[3-(dimethylamino)propyl]-3,4-dihydroxy-N-(1-methylpiperidin-4-yl)oxolane-2-carboxamide] | 100 to 1000 nM | 100 to 1000 nM |  |  |  | 

The remaining lines, values ahead:

Row | IC50 ([1]; Table 4) | IC50 ([2]; Table 4) | IC50 [3] | IC50 [4] | IC50 ([1]; Table 3) | IC50 ([2]; Table 3) | Structure (SMILES)
9 | ≥ 1000 nM | ≥ 1000 nM | ≥ 1000 nM | ≥ 1000 nM |  |  | Cn1ccc(-c2cn([C@@H]3O[C@H](C(=O)NC4CCNC(=O)C4)[C@@H](O)[C@H]3O)c3ncnc(N)c23)n1 (stereo partly drawn) [Compound I-175]
10 | ≥ 1000 nM | 100 to 1000 nM | ≥ 1000 nM | ≥ 1000 nM |  |  | Cn1ccc(-c2cn([C@@H]3O[C@H](C(=O)Nc4cc(NC5CCC5)ncn4)[C@@H](O)[C@H]3O)c3ncnc(N)c23)n1 [Compound I-164]
11 | ≥ 1000 nM | 100 to 1000 nM | ≥ 1000 nM | ≥ 1000 nM |  |  | Cn1ccc(-c2cn([C@@H]3O[C@H](C(=O)Nc4cc(F)cc(F)c4)[C@@H](O)[C@H]3O)c3ncnc(N)c23)n1 [Compound I-158]
12 | 100 to 1000 nM | 10 to 100 nM | ≥ 1000 nM | ≥ 1000 nM |  |  | Cn1ccc(-c2cn([C@@H]3O[C@H](C(=O)Nc4cc(NC5CCC5)ccn4)[C@@H](O)[C@H]3O)c3ncnc(N)c23)n1 [Compound I-162]
13 | 100 to 1000 nM | ≥ 1000 nM | ≥ 1000 nM | ≥ 1000 nM |  |  | CNc1cccc(CCNC(=O)[C@H]2O[C@@H](n3cc(-c4ccn(C)n4)c4c(N)ncnc43)[C@H](O)[C@@H]2O)n1 [Compound I-193]
14 | ≥ 1000 nM | ≥ 1000 nM | ≥ 1000 nM | ≥ 1000 nM |  |  | CC(=O)N1CCC(NC(=O)[C@H]2O[C@@H](n3cc(-c4ccn(C)n4)c4c(N)ncnc43)[C@H](O)[C@@H]2O)CC1 [Compound I-37]
15 | 100 to 1000 nM | 100 to 1000 nM | ≥ 1000 nM | ≥ 1000 nM |  |  | Cn1ccc(-c2cn([C@@H]3O[C@H](C(=O)NCCc4c[nH]cn4)[C@@H](O)[C@H]3O)c3ncnc(N)c23)n1 [Compound I-228]
16 | 100 to 1000 nM |  | ≥ 1000 nM | ≥ 1000 nM |  |  | Cn1ccc(-c2cn([C@@H]3O[C@H](C(=O)Nc4ccccc4)[C@@H](O)[C@H]3O)c3ncnc(N)c23)n1 [Compound I-173]
17 | ≥ 1000 nM | ≥ 1000 nM |  |  |  |  | Cn1ccc(-c2cn([C@@H]3O[C@H](C(=O)NC4CCN(CCN)CC4)[C@@H](O)[C@H]3O)c3ncnc(N)c23)n1 [Compound I-41, (2S,3S,4R,5R)-5-[4-amino-5-(1-methyl-1H-pyrazol-3-yl)-7H-pyrrolo[2,3-d]pyrimidin-7-yl]-N-[1-(2-aminoethyl)piperidin-4-yl]-3,4-dihydroxyoxolane-2-carboxamide]
18 | 10 to 100 nM | 10 to 100 nM |  |  |  |  | Cn1ccc(-c2cn([C@@H]3O[C@H](C(=O)NC4CCN(Cc5ccccc5)CC4)[C@@H](O)[C@H]3O)c3ncnc(N)c23)n1 [Compound I-201]
19 |  |  |  |  | 100 to 1000 nM | 10 to 100 nM | Cn1ccc(-c2cn([C@@H]3O[C@H](C(=O)NCC4CCNCC4)[C@@H](O)[C@H]3O)c3ncnc(N)c23)n1 [Compound I-2]
